Article PMC6892751, “Novel Angiotensin-Converting Enzyme-Inhibitory Peptides From Fermented Bovine Milk Started by Lactobacillus helveticus KLDS.31 and Lactobacillus casei KLDS.105: Purification, Identification, and Interaction Mechanisms” (Frontiers in Microbiology, 2019)
Where two headings read alike, the source gives them in different places. Where no end group is shown, it is not given here.

Legend:
[1] = molecular target: T1, angiotensin I-converting enzyme (ACE) (Oryctolagus cuniculus, UniProt P12822); assay: ACE-inhibitory activity determination by HPLC (hippuric acid from Hip-His-Leu); assay type: biochemical; conditions: HPLC of hippuric acid, Hip-His-Leu 5 mM, sodium borate buffer 50 mM pH 8.1, ACE 0.1 U/mL, 37°C 60 min, mean ± SD, triplicate, read-out: IC50 of ACE inhibition
T1 sequence (P12822 34-1310): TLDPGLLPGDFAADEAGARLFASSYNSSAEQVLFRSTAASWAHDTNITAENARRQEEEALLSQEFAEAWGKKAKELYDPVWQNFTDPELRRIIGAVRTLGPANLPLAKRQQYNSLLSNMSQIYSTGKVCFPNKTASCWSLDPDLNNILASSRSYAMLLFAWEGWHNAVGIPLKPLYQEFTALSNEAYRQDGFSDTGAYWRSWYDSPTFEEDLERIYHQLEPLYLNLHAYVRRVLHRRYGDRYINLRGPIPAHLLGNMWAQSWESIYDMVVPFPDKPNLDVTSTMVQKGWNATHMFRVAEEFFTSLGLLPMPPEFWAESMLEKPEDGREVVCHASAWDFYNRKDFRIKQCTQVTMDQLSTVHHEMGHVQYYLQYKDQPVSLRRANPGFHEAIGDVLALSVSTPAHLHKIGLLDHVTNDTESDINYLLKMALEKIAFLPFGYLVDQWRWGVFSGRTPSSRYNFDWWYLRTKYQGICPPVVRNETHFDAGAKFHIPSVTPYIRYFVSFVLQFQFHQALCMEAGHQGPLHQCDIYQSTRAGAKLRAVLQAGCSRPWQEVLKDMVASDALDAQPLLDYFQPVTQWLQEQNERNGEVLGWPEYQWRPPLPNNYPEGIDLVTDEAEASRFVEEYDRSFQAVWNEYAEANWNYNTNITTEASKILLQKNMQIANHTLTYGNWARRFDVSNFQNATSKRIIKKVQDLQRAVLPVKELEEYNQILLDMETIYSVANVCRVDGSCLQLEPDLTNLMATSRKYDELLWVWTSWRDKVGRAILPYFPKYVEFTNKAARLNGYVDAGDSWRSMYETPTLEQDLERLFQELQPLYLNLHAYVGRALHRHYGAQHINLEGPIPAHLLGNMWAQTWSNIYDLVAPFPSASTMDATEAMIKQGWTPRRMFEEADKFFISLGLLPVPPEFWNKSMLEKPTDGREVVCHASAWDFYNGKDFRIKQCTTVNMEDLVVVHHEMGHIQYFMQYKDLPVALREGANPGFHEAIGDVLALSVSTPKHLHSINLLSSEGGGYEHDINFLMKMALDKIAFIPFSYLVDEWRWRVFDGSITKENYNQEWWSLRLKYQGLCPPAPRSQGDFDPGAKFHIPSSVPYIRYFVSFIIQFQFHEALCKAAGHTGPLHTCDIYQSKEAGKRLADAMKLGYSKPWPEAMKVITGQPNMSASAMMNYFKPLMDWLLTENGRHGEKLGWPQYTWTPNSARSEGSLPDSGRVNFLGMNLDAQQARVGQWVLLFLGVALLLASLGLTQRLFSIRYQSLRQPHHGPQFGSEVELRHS
Protocol: The determination was measured by HPLC, with slight changes according to the procedure described by [Gonzalez-Gonzalez et al. (2011)]. The sample (20 μL) was dissolved in 120 μL Hip-His-Leu (5 mM) with sodium borate buffer (50 mM, pH 8.1). After incubation at 37°C for 3 min, the ACE solution (0.1 U/mL, 10 μL) was added to the sample and incubated for 60 min at the above temperature. Subsequently, 0.15 mL HCl (1 M) was used to terminate the reaction. The content of hippuric acid (HA) produced by reaction was determined by reverse-phase high-performance liquid chromatography (RP-HPLC, Waters Corporation, United States). A symmetry C18 Column (3.9 × 150 mm, 5 μm, Waters, United States) was used with the Waters HPLC model Alliance 2690 system, which included an ultraviolet detector (Waters, United States). […] Flow rate was 0.8 mL/min. The sample (6 μL) was filtered (0.45 μm filter) and measured at 228 nm. A standard curve was generated using concentrations of standard HA and peak areas. The ACE-inhibitory activity was determined as:
ACEinhibitoryactivity(%)=[HA]control-[HA]sample/[HA]control×100%
The concentration of inhibitor that inhibits 50% ACE activity is defined as IC50 value.

[2] = tested on: ACE; conditions: read-out: IC50 of ACE inhibition, cited from earlier work
Text: ACE-inhibitory peptides from bovine milk protein have been described previously ([De Leo et al., 2009]). These bioactive peptides are typically produced by enzymatic hydrolysis, microbial fermentation, or genetic engineering. In particular, more attention has been focused on microbial fermentation as the food grade bacteria, such as lactic acid bacteria (LAB), provide enriched food bioactive substances ([Castellano et al., 2013]). Furthermore, the hydrolytic processing of milk protein through the action of chymosin and Lactobacillus casei can also improve cheese flavor ([Lemieux et al., 2010]) ...

[3] = peptides from low-fat milk fermented with several LAB, ref Chen et al. (2007)

IC50 [1] | Substance | other results
201 ± 5.24 µM | LDHVPGGAR [Leu-Asp-His-Val-Pro-Gly-Gly-Ala-Arg] | 
110 ± 3.87 µM | KAALSGM [Lys-Ala-Ala-Leu-Ser-Gly-Met] | 
189 ± 4.61 µM | KKAAMAM [Lys-Lys-Ala-Ala-Met-Ala-Met] | 

Second part, the substance before the results:

Substance | IC50 [1] | other results
KPAGDF [Lys-Pro-Ala-Gly-Asp-Phe] | 77.5 ± 2.74 µM | 
Gly-Val-Trp |  | IC50 [2, 3]: 240 µM
Gly-Thr-Trp |  | IC50 [2, 3]: 464 µM
RLSFDP [literature peptide from β-lactoglobulin hydrolysate (f148-153), sour milk fermented with Lb. helveticus LB10] |  | IC50 ([2]; from sour milk fermented with Lb. helveticus LB10, β-lactoglobulin hydrolysate (f148-153), ref Pan and Guo (2010)): 177 µM
